Results on 22 compounds are retold here after ChEMBL document CHEMBL3526113, “Control and measurement of plasma pH in equilibrium dialysis: influence on drug plasma protein binding” (Drug Metab Dispos, 2011).

Where only a bound is given, the exact number is not on record here.

Data set [1] can be described thus: Dissociation constant, pKa of the compound. The class given is physicochemical.
Data set [2] in a line: Unbound fraction in plasma (unknown origin) under normal atmospheric condition at pH 7.22 after 6 hrs by equilibrium dialysis method. The class given is ADME, cell-free. For orientation: Equilibrium dialysis compares concentrations on both sides of a semipermeable membrane.
Data set [3] can be described thus: Unbound fraction in plasma (unknown origin) at pH 7.4 after 6 hrs by equilibrium dialysis method in presence of 5% CO2. In kind it is ADME, cell-free.
Data set [4] is described as follows: Unbound fraction in plasma (unknown origin) at pH 7.63 after 6 hrs by equilibrium dialysis method in presence of 5% CO2. In kind it is ADME, cell-free.
The nature of data set [5]: Unbound fraction in plasma (unknown origin) under normal atmospheric condition at pH 7.72 after 6 hrs by equilibrium dialysis method. In kind it is ADME, cell-free.
A short description of data set [6]: Drug recovery in plasma (unknown origin). The class given is ADME, cell-free.

Consider `CCN(CC)C(=O)C1(c2ccccc2)CC1CN` (stereo not given), for which, in data set [1], the pKa came to 9.7. Further, the free fraction (fraction unbound) at 6 h is 0.809 in data set [2], 0.837 in data set [3], 0.777 in data set [4] and 0.828 in data set [5]. Further, the Compound recovery in data set [6] was over 70%.
In data set [6], `COc1ccc(CCN(C)CCCC(C#N)(c2ccc(OC)c(OC)c2)C(C)C)cc1OC` (stereo not given) yielded a Compound recovery of over 70%.
The compound `N[C@@H]1C[C@H]1c1ccccc1.N[C@H]1C[C@@H]1c1ccccc1` (racemic) [TRANYLCYPROMINE] displayed a pKa in data set [1] of 8.2. The fraction unbound at 6 h in data set [2] was found to be 0.63; in data set [3] it was 0.612; in data set [4], 0.53; in data set [5], 0.49. This compound also gave a Compound recovery in data set [6] of over 70%.
The compound `O=C1CC2(CCCC2)CC(=O)N1CCCCN1CCN(c2ncccn2)CC1` [BUSPIRONE] had a pKa in data set [1] of 7.3. In data set [6], this compound gave a Compound recovery of over 70%.
With `NC(=O)N1c2ccccc2C=Cc2ccccc21` [CARBAMAZEPINE], the fraction unbound at 6 h in data set [2] stood at 0.303; in data set [3] it was 0.291; in data set [4], 0.288; in data set [5], 0.299. Also, in data set [6], the Compound recovery is reported as over 70%.
Regarding `CCn1nc(C(=O)O)c(=O)c2cc3c(cc21)OCO3` [CINOXACIN], the pKa in data set [1] is 4.7. For the same compound, the fraction unbound at 6 h in data set [2] came to 0.251; in data set [3], 0.214; in data set [4] it was 0.23; in data set [5], 0.266. Further, the Compound recovery in data set [6] was over 70%.
As for `CN1CCN(C2=Nc3cc(Cl)ccc3Nc3ccccc32)CC1` [CLOZAPINE], the fraction unbound at 6 h in data set [2] is 0.101; in data set [3], 0.081; in data set [4], 0.058; in data set [5] it was 0.042. This compound also displayed a Compound recovery in data set [6] of over 70%.
As for `CN1C(=O)CN=C(c2ccccc2)c2cc(Cl)ccc21` [DIAZEPAM], the Compound recovery in data set [6] was over 70%.
In data set [6], `O=C(O)Cc1ccccc1Nc1c(Cl)cccc1Cl` [DICLOFENAC] yielded a Compound recovery of over 70%.
With `COc1ccc([C@@H]2Sc3ccccc3N(CCN(C)C)C(=O)[C@@H]2OC(C)=O)cc1` [DILTIAZEM], the pKa in data set [1] came to 8. For the same compound, the fraction unbound at 6 h in data set [2] was 0.417; in data set [3], 0.349; in data set [4] it was 0.35; in data set [5], 0.298. In data set [6], this compound showed a Compound recovery of over 70%.
Take `CNCCC(Oc1ccc(C(F)(F)F)cc1)c1ccccc1` (stereo not given) [FLUOXETINE]: the fraction unbound at 6 h came to 0.079 in data set [2], 0.056 in data set [3], 0.063 in data set [4] and 0.04 in data set [5]. In data set [6], the Compound recovery is reported as over 70%.
As for `O=C(CCCN1CCC(O)(c2ccc(Cl)cc2)CC1)c1ccc(F)cc1` [HALOPERIDOL], the fraction unbound at 6 h in data set [2] turned out to be 0.223; in data set [3], 0.161; in data set [4] it was 0.164; in data set [5], 0.124. For the same compound, the Compound recovery in data set [6] is on record as over 70%.
Taken in the same sequence, the figures for `CN(C)CCCN1c2ccccc2CCc2ccccc21` [IMIPRAMINE] were 0.22, 0.181, 0.172, 0.105 and over 70%.
For the compound `Cc1ncc2n1-c1ccc(Cl)cc1C(c1ccccc1F)=NC2` [MIDAZOLAM], the pKa in data set [1] was determined as 9. Further, the fraction unbound at 6 h in data set [2] was found to be 0.034; in data set [3], 0.036; in data set [4], 0.041; in data set [5] it was 0.019. For the same compound, the Compound recovery in data set [6] was found to be 63%.
For the compound `CN1CCN2c3ncccc3Cc3ccccc3C2C1` (stereo not given) [MIRTAZAPINE], the fraction unbound at 6 h in data set [2] stood at 0.32; in data set [3], 0.286; in data set [4], 0.266; in data set [5] it was 0.16. The compound also came in with a Compound recovery in data set [6] of over 70%.
Take `COC(=O)C1=C(C)NC(C)=C(C(=O)OCCN(C)Cc2ccccc2)C1c1cccc([N+](=O)[O-])c1` (stereo not given) [NICARDIPINE]: the pKa in data set [1] turned out to be 7.2. For the same compound, the fraction unbound at 6 h was 0.008 in data set [2], 0.005 in data set [3], 0.008 in data set [4] and 0.003 in data set [5]. Moreover, in data set [6], the Compound recovery is on record as over 70%.
Turning to `Fc1ccc([C@@H]2CCNC[C@H]2COc2ccc3c(c2)OCO3)cc1` [PAROXETINE], the pKa in data set [1] turned out to be 9.5. The fraction unbound at 6 h in data set [2] worked out at 0.136; in data set [3], 0.099; in data set [4], 0.089; in data set [5] it was 0.074. In data set [6], this compound displayed a Compound recovery of over 70%.
For the compound `CC(C)NCC(O)COc1cccc2ccccc12` (stereo not given) [PROPRANOLOL], the fraction unbound at 6 h in data set [2] was determined as 0.315; in data set [3] it was 0.231; in data set [4], 0.213; in data set [5], 0.216. In addition, the Compound recovery in data set [6] is over 70%.
On to `C=C[C@H]1C[N@@]2CC[C@H]1C[C@@H]2[C@@H](O)c1ccnc2ccc(OC)cc12` [QUINIDINE], for which the Compound recovery in data set [6] is on record as over 70%.
Take `Cc1nc2n(c(=O)c1CCN1CCC(c3noc4cc(F)ccc34)CC1)CCCC2` [RISPERIDONE]: the fraction unbound at 6 h in data set [2] was determined as 0.276; in data set [3] it was 0.186; in data set [4] it was 0.222; in data set [5], 0.163. Also, in data set [6], the Compound recovery is over 70%.
`CC(CN(C)C)CN1c2ccccc2CCc2ccccc21` (stereo not given) [TRIMIPRAMINE] had a pKa in data set [1] of 8.4. The fraction unbound at 6 h is 0.106 in data set [2], 0.054 in data set [3], 0.052 in data set [4] and 0.037 in data set [5]. Besides, the Compound recovery in data set [6] is over 70%.
In the case of `CC(=O)CC(c1ccccc1)c1c(O)c2ccccc2oc1=O` (stereo not given) [WARFARIN], the Compound recovery in data set [6] is listed as over 70%.

Usually pKa stands for the negative logarithm of the acid dissociation constant. A low value points to a stronger acid or weaker base. As usually defined, the fraction unbound is the share of the substance not bound to proteins or other matrix.
